From patent publication US20090202569A1, “Prophylactic/Therapeutic Agent for Cancer” (priority 2006, published 2009)

Tests used:
[1] = test system: SF268/ACS5 cells; test: FAS inhibitor sensitivity of cells with stable high ACS5 expression, surviving cells counted by trypan blue exclusion; type: cell-based, human; settings: 15 μg/ml, treated for 24 hours
[2] = test system: SF268/mock cells; test: FAS inhibitor sensitivity of control cells, surviving cells counted by trypan blue exclusion; type: cell-based, human; settings: 15 μg/ml, treated for 24 hours
[3] = test system: lung cancer cell strain NCI-H23; test: Combined effect of ACS inhibitor and FAS inhibitors, cell survival rate by the Sulforhodamine B method; type: cell-based; settings: 3 days, n=3, 100% = without drug treatment

| Structure (SMILES) | growth suppression effect [1] | growth suppression effect [2] | cell survival rate ([3]; NCI-H23, 2 μM FAS inhibitor alone) [%] | cell survival rate ([3]; NCI-H23, 0.3 μM Triacsin C alone) [%] |
| --- | --- | --- | --- | --- |
| C/C=C/C/C=C/CCC(=O)[C@H]1O[C@H]1C(N)=O [Cerulenin, 2R,3S,E,E)-2,3-epoxy-4-oxo-7,10-dodecadienamide] | no growth suppression effect | clear growth suppression effect | 70.2±7.9 |  |
| CCCC=CCC=CC=CC=NNN=O [Triacsin C, 2,4,7-undecatrienal nitrosohydrazone] |  |  |  | 56.3±0.5 |
